Patent US6399570B1, “Antimicrobial/endotoxin neutralizing polypeptide” (priority 1999, dated 2002)
Where a SMILES comes first, the peptide text is derived from it.

How the values were obtained:
E. coli 0111 [1] = details: Bellamy et al. 1992; cited from earlier work
E. coli 0111 [2] = assay: Antimicrobial assay for LF polypeptides (CFU after 6 h); type: cell-based
Description: The antimicrobial activity of the catheptic polypeptide was measured against a clinical isolate, E. coli 0111. […] The 6 kDa catheptic fragment of LF is therefore at least as potent as twelve other natural antimicrobial polypeptides (H. G. Boman, J. Marsh, and J. A. Goode, Eds., Antimicrobial Peptides, (John Wiley & Sons Ltd., New York, N.Y., 1994)), and can function as a bactericidal agent. […] At 100 μM polypeptide, the number of viable bacteria was more than 1,000-fold greater in the cultures treated with the pepsinolytic versus cathepsinolytic fragment (FIG. 1). The basis for this difference in potency may be related to the additional, internal, pepsin cleavages which occur between the two disulfide bridges in the 6 kDa domain (Mann et al., J. Biol. Chem. 269: 23661-7 (1994); Bellamy et al., Biochim. Biophys. Acta 1121: 130-6 (1992)).
Antimicrobial assay for LF polypeptides. Cultures of E. coli 0111 (American Type Culture Collection #43887) were grown at 37° C. in 1% bactopeptone (BP) (Difco) in Dulbecco's phosphate buffered saline (dPBS) (Mediatech) with aeration by shaking (225 rpm). overnight cultures were diluted 8,000-fold in 2×concentrated BP/dPBS and mixed with an equal volume of sterile endotoxin-free distilled water containing serial dilutions of the polypeptide to be tested. The final assay volume was […] in a 12 mm×75 mm polypropylene tube (Falcon) with an ultimate dilution of the overnight cultures of 1:16,000 to yield an original inoculum of ˜1-2×10^4 CFU/ml. The final assay medium was physiological in ionic strength, 1% bactopeptone in 1×Dulbecco's phosphate buffered saline. Cultures were grown for 6 h at 37° C. with aeration as above and then cell density determined by measuring CFU/ml for each assay culture tube. Serial dilutions of each assay tube were plated on Luria Broth bactoagar and incubated for 24 h at 37° C. prior to counting colonies. All assays were done in triplicate and the standard deviation calculated for each concentration of inhibitor. Culture density at the beginning and end of the 6 h growth period was also determined from triplicate cultures lacking any polypeptide inhibitors. Untreated cultures typically grew to 1-2×10^8 CFU/ml in 6 h under these assay conditions.

E. coli 0111 [3] = assay: Potentiation of Rifampicin by LF polypeptides; details: 5 μM polypeptide + 0.9 μg/ml rifampicin, 6 hr
Description: E. coli cultures were exposed to sub-optimal doses of Rifampicin in the presence or absence of sub-optimal doses of the indicated polypeptides (FIG. 5), and were incubated for 6 hours, at which point CFU were determined.
E. coli 0111 were grown overnight as described above. Overnight cultures were then diluted 1:16,000 in 1% BP/PBS containing 0.9 μg/ml Rifampicin (Sigma-Aldrich Fine chemicals) and 5 μM LF polypeptides as indicated. Control cultures were those not exposed to any polypeptide. The diluted cultures were then incubated at 37° C. for 6 hr with aeration by shaking. The number of viable bacteria were then determined by dilution plating samples from each group and subsequently counting colony forming units (CFU). All values represent the average of duplicate independent experiments.

RAW264.7 cells = assay: Cytotoxicity of LF-33 to RAW264.7 cells (MTT); type: cell-based, murine; details: 10 μM, highest concentration used
E. coli 0111 [4] = assay: Dose response of E. coli 0111 cells in the presence of LF polypeptides; type: cell-based; details: E. coli 0111, 5 hours, OD 600 nm
Description: To compare the activity of the above described 33-mer which contains both basic clusters, and the above described 27-mer, which contains only one basic cluster, E. coli cultures were grown for 5 hours in the presence of varying doses of the two polypeptides.
Dose response of E. coli 0111 cells in the presence of LF polypeptides. E. coli were cultured as described above, for 5 hr in the presence of varying concentrations of polypeptide 33-mer or the related 27-mer. Inhibition of culture growth was determined spectrophotometrically as described earlier.

E. coli LPS = assay: Limulus ELISA, ENC50 against E. coli LPS; type: biochemical, Escherichia coli O113:H10; details: endotoxin 200 EU/ml; mean +/− SD
Description: (§1) The peptide-mediated inhibition of endotoxin-induced Limulus amebocyte lysate (LAL) coagulation was measured with a sensitive LAL assay (Zhang et al., J. Clin. Microbiol. 32: 416-422 (1994)). Limulus ELISA is an endotoxin assay based on activation of the LAL coagulation by endotoxin and detection of the generated peptide-C immunoreactivity with an ELISA using a monoclonal antibody to the polypeptide. Endotoxin was defined to be neutralized when it lost its ability to activate the LAL enzymes. The 50% endotoxin-neutralizing concentration (ENC50) reflects the potency of an anti-endotoxin agent; a low ENC50 indicates high potency. Table 2 lists the determined ENC50 value of each anti-endotoxin agent against lipid A and four different types of LPS. The potency of each anti-endotoxin agent varied depending on the type of endotoxin. […] The only difference between the sequence of LF-33 and LF-27 is that LF-27 lacks the first six residues (GRRRRS) at the N-terminus of LF-33. Remarkably, this deletion led to dramatic loss of the endotoxin-neutralizing capacity of the polypeptide in this assay. Binding of serum proteins to endotoxin neutralizes the endotoxin activity in this assay by preventing endotoxin from activating LAL (Emancipator et al., Infect. Immun. 60: 596-601 (1992)).
(§2) LPS. […] LPS (purity >99%) from Neisseria meningitidis was prepared from the group B strain #6275 and its potency was 25 EU/ng. […] The potency of the above endotoxin was determined with the Limulus enzyme-linked immunosorbent assay (ELISA, 43) in comparison with US Pharmacopeia reference standard endotoxin EC-5.
(§3) Briefly, 25 μl endotoxin solution (200 EU/ml) was mixed with an equal volume of test materials in a series of two-fold dilution in 0.15 M NaCl in a sterile 96-well tissue culture plate (Nunc A/S, Roskilde, Denmark), and incubated at 37° C. for 1 h in a dry-air incubator. […] The endotoxin activity was then quantified with the use of Limulus ELISA (Zhang et al., J. Clin. Microbiol. 32: 416-422 (1994)). […] The high sensitivity of the assay allowed for very low levels of the endotoxin activity to be detected. […]

RAW 264.7 cells = assay: Endotoxin-induced TNF-α secretion by RAW264.7 cells in culture medium containing 10% human serum; type: cell-based, murine; details: polypeptide 2.5 μM, endotoxin 10 ng/ml
Description: To test the suppression of endotoxin-induced TNF-α secretion under more physiological conditions, LF-33 or polymyxin B was added to human serum (final concentration 10%) before the addition of endotoxin.
Endotoxin induced TNF-α secretion by RAW 264.7 cells. The murine macrophage cell line RAW 264.7 was obtained from the American Type Culture Collection (ATCC, Rockville, Md.) and maintained as described previously (Jeremy, B., Immunol. Today. 16: 417-419 (1995)). The concentration of endotoxin in all buffers and media was controlled to below 0.1 EU/ml. The following protocol was essentially described before and used here with minor modifications (Kelly et al., Infect. Immun. 59: 4491-6 (1991)). Each well of a 96-well tissue culture plate was seeded with 150 μl RAW 264.7 cells at 10^6 cells per ml DMEM (Life Technologies, Gaithersburg, Md.) supplemented with 10% heat-treated fetal bovine serum (Life Technologies), 25 mM HEPES (N-2-hydroxyethylpiperazine-N′-2-ethanesulfonic acid; pH 7.3), penicillin (60 U/ml) and streptomycin (60 μg/ml). After overnight incubation at 37° C. in a 6% CO2 incubator, the medium was aspirated and cells washed with 3-changes of endotoxin-free Hank's balanced salt solution (HBSS, Life Technologies) supplemented with 25 mM HEPES (pH 7.3). Control endotoxin (10 ng/ml) and test materials were prepared in HBSS-HEPES. After incubation in a 37° C. water bath for 1 h, 0.2 ml of these solutions was added in triplicate to each well and incubated at 37° C. for 6 h. The supernatants were then collected and stored at −70° C. before the measurement of […] activity. Controls included HBSS-HEPES and test materials in the absence of endotoxin. TNF-α activity of the medium and test materials was below […]. The human serum used in some experiments was a pool from normal donors.
Determination of TNF activity. TNF-α activity in the culture supernatant was determined based on its cytotoxicity for the mouse fibrosarcoma cell line WEHI 164 cells (ATCC). […] The antibody at 1:100 dilution completely eliminated the cytotoxicity in the culture supernatant of the RAW 264.7 cell stimulated by endotoxin and in the mouse sera collected 1 h after intraperitoneal injection of endotoxin.
Briefly, the 96-well tissue culture plates were seeded with 100 μl WEHI164 cells (5×10^4 cells) in RPMI-1640 medium (Life Technologies) containing 10% heat-treated fetal bovine serum, 25 mM HEPES (pH 7.3), penicillin (60 U/ml), streptomycin (60 μg/ml), and actinomycin D (4 μg/ml). […] Cell viability was then determined by the addition of 10 μl MTT (Thiazolyl blue, Sigma) stock solution (5 mg/ml in saline) to each well, and the incubation was allowed to continue for 6 h. […] The plate was read at 570 nm with a reference of 630 nm in a microplate reader. […]

N. min. LPS = assay: Limulus ELISA, ENC50 against N. min. LPS; type: biochemical, Neisseria meningitidis; details: endotoxin 200 EU/ml; mean +/− SD
Description: as §1, §2, §3

S. abortus LPS = assay: Limulus ELISA, ENC50 against S. abortus LPS; type: biochemical, Salmonella abortus equi; details: endotoxin 200 EU/ml; mean +/− SD
Description: as §1, §2, §3

Lipid A = assay: Limulus ELISA, ENC50 against Lipid A; type: biochemical, E. coli K12; details: endotoxin 200 EU/ml; mean +/− SD
Description: as §1, §2, §3

P. aer. LPS = assay: Limulus ELISA, ENC50 against P. aer. LPS; type: biochemical, Pseudomonas aeruginosa; details: endotoxin 200 EU/ml; mean +/− SD
Description: as §1, §2, §3

## pepsinolytic fragment: 6 kDa fragment released from LF by pepsin, amino acids 1-47, no amide bond between amino acid 11 and 12 [reference compound]
E. coli 0111 [1]
  MIC previously reported: 18 µM
E. coli 0111 [2]; 100 μM polypeptide
  number of viable bacteria, pepsinolytic versus cathepsinolytic fragment: more than 1,000 fold
E. coli 0111 [2]; E. coli 0111, physiological ionic strength, 6 h, CFU
  minimum inhibitory concentration (MIC): 11 to 33 µM

## CSCC[C@H](NC(=O)[C@H](CC(N)=O)NC(=O)[C@H](CCCNC(=N)N)NC(=O)[C@H](CCC(N)=O)NC(=O)[C@H](Cc1c[nH]c2ccccc12)NC(=O)[C@H](CCC(N)=O)NC(=O)[C@H](Cc1ccccc1)NC(=O)[C@H](CS)NC(=O)[C@H](CCCCN)NC(=O)[C@@H](NC(=O)[C@H](C)NC(=O)[C@H](CCC(=O)O)NC(=O)[C@@H]1CCCN1C(=O)[C@H](CCC(N)=O)NC(=O)[C@H](CO)NC(=O)[C@@H](NC(=O)[C@H](C)NC(=O)[C@H](CS)NC(=O)[C@H](Cc1c[nH]c2ccccc12)NC(=O)[C@H](CCC(N)=O)NC(=O)[C@@H](NC(=O)[C@H](CO)NC(=O)[C@H](CCCNC(=N)N)NC(=O)[C@H](CCCNC(=N)N)NC(=O)[C@H](CCCNC(=N)N)NC(=O)[C@H](CCCNC(=N)N)NC(=O)CN)C(C)C)C(C)C)[C@@H](C)O)C(=O)N[C@@H](CCCNC(=N)N)C(=O)N[C@@H](CCCCN)C(=O)N[C@H](C(=O)N[C@@H](CCCNC(=N)N)C(=O)NCC(=O)N1CCC[C@H]1C(=O)O)C(C)C [LF-33] (H-GRRRRSVQWCAVSQPEATKCFQWQRNMRKVRGP-OH)
E. coli 0111 [3]
  viable bacteria relative to the rifampicin treatment alone: approximately 1%
RAW264.7 cells
  cytotoxicity to RAW264.7 cells: no cytotoxicity
E. coli 0111 [4]
  minimum inhibitory concentration (MIC): 2 to 5 µM
M. smegmatis BH1; 50 μM LF-33, 16 hours, average of three experiments, listed as 33-mer
  % killed, average: approximately 94%
M. smegmatis BH1; M. smegmatis, 16 hours
  anti-mycobacterial MIC: not more than 10 μM

## Polymyxin B [reference compound]
E. coli LPS
  IC50: 1.95 µM
RAW 264.7 cells; control 4,428
  TNF-α secretion induced by P. aer. LPS: 4,206 +/− 956 pg/ml
  TNF-α secretion, P. aer. LPS mixing with serum first: 4,206 +/− 956 pg/ml
RAW 264.7 cells; control 5,726
  TNF-α secretion induced by S. abortus LPS: 4,090 +/− 806 pg/ml
RAW 264.7 cells; control 8,817
  TNF-α secretion induced by N. min. LPS: 8,181 +/− 1,032 pg/ml
N. min. LPS
  IC50: > 100 µM
S. abortus LPS
  IC50: 18.2 µM
Lipid A
  IC50: 0.19 µM
P. aer. LPS
  IC50: 3.91 µM
